Read-outs that look alike come from different tables or passages of the source.
Tests used:
hGPR35 [1] = target: T1, hGPR35 (Homo sapiens, UniProt Q9HC97); assay: DMR antagonism (desensitization) assay in CHO-GPR35 cells, zaprinast challenge; assay type: cell-based; settings: for GPR35 receptor activity (result in words): CHO-GPR35 cells, desensitization when stimulated by agonist zaprinast
T1 construct: expressed in transfected cells
Protocol: (§1) CHO-GPR35 cells were the same as our previously reported. CHO-GPR35 cells were cultured in an F12 medium supplemented with 10% FBS, penicillin (50 μg/ml), streptomycin (100 μg/ml) and zeocin (200 μg/ml) at 37°C under 5% CO2. HEK293 cells were purchased from the National Collection of Authenticated Cell Cultures (Shanghai, China) and cultured in DMEM medium supplemented with 10% FBS, penicillin (50 μg/ml) and streptomycin (100 μg/ml) and at 37°C under 5% CO2.
(§2) When the cells approached 90% confluence, they were seeded in 384-well biosensor plates with a density of 1.5 × 10^4 CHO-GPR35 or 2.5 × 10^4 HEK293-GLP-1R cells/well and cultured for 24 h. The culture medium in the 384-well biosensor plates was replaced with 30 μl of Hank’s balanced salt solution (1 × HBSS) and then further incubated inside the system for 1 h before measurement. For the dynamic mass redistribution (DMR) agonism assay, a 2-min baseline was first established, followed by adding compounds using the multi-channel pipette, and the compound-triggered DMR responses were recorded for approximately 1 h. […] For DMR antagonism assay, cells were initially treated with either an antagonist or compound for 1 h in GPR35 and 90 min in GLP-1R assays, respectively. […] All DMR responses were background-corrected.

hGPR35 [2] = target: T1, hGPR35; assay: DMR agonism assay in CHO-GPR35 cells; assay type: cell-based
Protocol: as §1, §2

T1 sequence (Q9HC97 whole entry): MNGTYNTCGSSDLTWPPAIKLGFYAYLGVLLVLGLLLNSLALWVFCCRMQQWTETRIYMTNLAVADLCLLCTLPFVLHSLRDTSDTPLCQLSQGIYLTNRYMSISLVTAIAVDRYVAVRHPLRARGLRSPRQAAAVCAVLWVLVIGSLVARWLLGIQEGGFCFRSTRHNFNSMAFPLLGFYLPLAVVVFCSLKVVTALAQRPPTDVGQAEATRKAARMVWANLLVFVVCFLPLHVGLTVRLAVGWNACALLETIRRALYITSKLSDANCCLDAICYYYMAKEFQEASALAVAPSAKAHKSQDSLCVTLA

SMILES | GPR35 receptor activity (result in words) (hGPR35 [1]) | IC50 (hGPR35 [1]; read-out: IC50 (hGPR35, DMR desensitization)) [µM] | compound-triggered DMR signal in CHO-GPR35 cells (hGPR35 [2]) | IC50 (hGPR35 [1]) [µM]
CC(C)NC(=O)c1cccc(-c2noc(CCc3c[nH]c4ccccc34)n2)c1 [F545-1970] | GPR35 receptor antagonistic activity, with relatively weak activity | 38.8 | do not show a significant increase in DMR signal | –
COCC12CCN(c3ccc(C#N)c(C(F)(F)F)c3)CC1CN(C(=O)CCc1ccccc1)C2 (stereo not drawn) [S948-0241] | GPR35 receptor antagonistic activity, with relatively weak activity | – | do not show a significant increase in DMR signal | 67.9

— paper PMC11167311, “Revolutionizing GPCR–ligand predictions: DeepGPCR with experimental validation for high-precision drug discovery” (Briefings in Bioinformatics, 2024)
